ChEMBL document CHEMBL1201862, “PubChem BioAssay data set” (2004)
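Briefly, cells in 96-well plates were exposed to five compound concentrations for 48 h, and endpoints were estimated by linear interpolation. At the GI50, growth is halved.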 Calls of active or inactive are those of the source. Cut-off read from the data, not from the text of the source: active = GI50 up to about 1.1 µM and inactive = higher.

Experiments:
Assay in all cases: inhibition of tumour cell growth, NCI panel, 48 h
DMS-114 = tested on: DMS-114
LXFL 529 = tested on: LXFL 529
M19-MEL = tested on: M19-MEL
SNB-78 = tested on: SNB-78
DMS-273 = tested on: DMS-273
HOP-18 = tested on: HOP-18
KM-20L2 = tested on: KM-20L2
XF498 = tested on: XF498
RXF 631 = tested on: RXF 631

Which results are given for O=C(Nc1cc(Cl)c(Cl)cc1Cl)C(=O)C(C(=O)c1ccc2ccccc2c1)C1OC(=O)c2ccccc21 (centres undefined)?
GI50 (DMS-114): 9.2 µM (inactive); GI50 (LXFL 529): 10.6 µM (inactive); GI50 (M19-MEL): 13.6 µM (inactive); GI50 (SNB-78): 8.43 µM (inactive)

Which results are given for O=C(CSc1c2ccccc2nc2ccccc12)Nc1ccccc1-c1ccccc1NC(=O)CSc1c2ccccc2nc2ccccc12?
GI50 (DMS-114): 15 µM (inactive); GI50 (DMS-273): 32.2 µM (inactive); GI50 (HOP-18): 79.1 µM (inactive); GI50 (KM-20L2): 31.3 µM (inactive); GI50 (LXFL 529): 9.46 µM (inactive); GI50 (M19-MEL): 23.1 µM (inactive); GI50 (SNB-78): 27.6 µM (inactive); GI50 (XF498): 19.1 µM (inactive)

Which results are given for O=C1CNNC(Cn2nc(-c3ccccc3)c3ccccc3c2=O)=N1?
GI50 (DMS-114): > 100 µM (inactive); GI50 (DMS-273): > 100 µM (inactive); GI50 (HOP-18): > 100 µM (inactive); GI50 (LXFL 529): > 100 µM (inactive); GI50 (M19-MEL): > 100 µM (inactive); GI50 (SNB-78): > 100 µM (inactive)

With Cc1cccc(C(C)C)c1NC(=O)CC1C(=O)Nc2ccccc2S1(=O)=O (centres undefined) as the compound, how does the GI50 (DMS-114) read?
The GI50 was 13 µM (inactive).

And the GI50 (DMS-273)?
Its GI50 is 6.03 µM (inactive).

What about the GI50 (HOP-18) of the same compound?
The GI50 was 26.4 µM (inactive).

What about the GI50 (KM-20L2) of the same compound?
Its GI50 is 18.1 µM (inactive).

And the GI50 (LXFL 529)?
The GI50 was 16.7 µM (inactive).

And the GI50 (M19-MEL)?
Its GI50 is 18.6 µM (inactive).

And the GI50 (RXF 631)?
The GI50 was 13.4 µM (inactive).

What about the GI50 (SNB-78) of the same compound?
Its GI50 is 17.7 µM (inactive).

What about the GI50 (XF498) of the same compound?
Its GI50 is 27.6 µM (inactive).

Which GI50 (DMS-114) does the source give for O=C(O)CCSCCCN1C(=O)c2ccccc2C1=O here?
Its GI50 is > 100 µM (inactive).

And the GI50 (KM-20L2)?
The GI50 was > 100 µM (inactive).

What about the GI50 (LXFL 529) of the same compound?
The GI50 was > 100 µM (inactive).

What about the GI50 (M19-MEL) of the same compound?
The GI50 was > 100 µM (inactive).

And the GI50 (SNB-78)?
Its GI50 is > 100 µM (inactive).

How did the GI50 (DMS-114) turn out when COc1ccccc1NC(=O)C(=O)C(c1cnc2ccc([N+](=O)[O-])cc2n1)[N+](=O)[O-] (centres undefined) was run?
Its GI50 is 17.9 µM (inactive).

And the GI50 (DMS-273)?
Its GI50 is 64 µM (inactive).

What about the GI50 (HOP-18) of the same compound?
The GI50 was > 100 µM (inactive).

What about the GI50 (KM-20L2) of the same compound?
Its GI50 is > 100 µM (inactive).

And the GI50 (LXFL 529)?
Its GI50 is 75 µM (inactive).

What about the GI50 (M19-MEL) of the same compound?
The GI50 was > 100 µM (inactive).

What about the GI50 (RXF 631) of the same compound?
Its GI50 is 39.2 µM (inactive).

What about the GI50 (SNB-78) of the same compound?
Its GI50 is > 100 µM (inactive).

And the GI50 (XF498)?
Its GI50 is > 100 µM (inactive).

How did the GI50 (DMS-114) turn out when Cc1ccc(S(=O)(=O)c2c(N)c3nccn3c3nc4ccccc4nc23)cc1 was run?
Its GI50 is > 100 µM (inactive).

And the GI50 (DMS-273)?
Its GI50 is 81.1 µM (inactive).

And the GI50 (KM-20L2)?
Its GI50 is > 100 µM (inactive).

What about the GI50 (LXFL 529) of the same compound?
Its GI50 is > 100 µM (inactive).

And the GI50 (M19-MEL)?
The GI50 was > 100 µM (inactive).

What about the GI50 (SNB-78) of the same compound?
The GI50 was 53.5 µM (inactive).

What about the GI50 (XF498) of the same compound?
Its GI50 is 41.8 µM (inactive).

With O=C(Cc1ccccc1)C(c1ccccc1)S(=O)(=O)c1ccccc1 (centres undefined) as the compound, how does the GI50 (DMS-114) read?
Its GI50 is 48.6 µM (inactive).

And the GI50 (DMS-273)?
Its GI50 is > 100 µM (inactive).

What about the GI50 (HOP-18) of the same compound?
The GI50 was 85.5 µM (inactive).

And the GI50 (KM-20L2)?
Its GI50 is > 100 µM (inactive).

What about the GI50 (LXFL 529) of the same compound?
The GI50 was 87.1 µM (inactive).

And the GI50 (M19-MEL)?
The GI50 was > 100 µM (inactive).

And the GI50 (RXF 631)?
Its GI50 is > 100 µM (inactive).

What about the GI50 (SNB-78) of the same compound?
The GI50 was 97.7 µM (inactive).

What about the GI50 (XF498) of the same compound?
Its GI50 is > 100 µM (inactive).

COC(=O)CC(=O)C[P+](c1ccccc1)(c1ccccc1)c1ccccc1 was tested. Which GI50 (DMS-114) did it give?
The GI50 was > 218 µM (inactive).

What about the GI50 (DMS-273) of the same compound?
The GI50 was > 218 µM (inactive).

What about the GI50 (HOP-18) of the same compound?
The GI50 was 39.8 µM (inactive).

And the GI50 (KM-20L2)?
Its GI50 is > 218 µM (inactive).

What about the GI50 (LXFL 529) of the same compound?
The GI50 was 89.9 µM (inactive).

What about the GI50 (M19-MEL) of the same compound?
The GI50 was 209 µM (inactive).

And the GI50 (RXF 631)?
Its GI50 is > 218 µM (inactive).

What about the GI50 (XF498) of the same compound?
Its GI50 is 45.4 µM (inactive).

CCOC(=O)NN1C(=O)C(=P(c2ccccc2)(c2ccccc2)c2ccccc2)C(C(=O)OCC)=C1C was tested. Which GI50 (DMS-273) did it give?
The GI50 was > 100 µM (inactive).

What about the GI50 (KM-20L2) of the same compound?
The GI50 was > 100 µM (inactive).

And the GI50 (LXFL 529)?
Its GI50 is > 100 µM (inactive).

What about the GI50 (M19-MEL) of the same compound?
The GI50 was > 100 µM (inactive).

What about the GI50 (RXF 631) of the same compound?
Its GI50 is > 100 µM (inactive).

And the GI50 (SNB-78)?
Its GI50 is > 100 µM (inactive).

And the GI50 (XF498)?
Its GI50 is > 100 µM (inactive).

COC(=O)C1=C(O)C(O)=C(C(=O)OC)C1 was tested. Which GI50 (DMS-114) did it give?
Its GI50 is > 100 µM (inactive).

What about the GI50 (DMS-273) of the same compound?
The GI50 was > 100 µM (inactive).

What about the GI50 (HOP-18) of the same compound?
The GI50 was > 100 µM (inactive).

And the GI50 (KM-20L2)?
The GI50 was > 100 µM (inactive).

What about the GI50 (LXFL 529) of the same compound?
Its GI50 is > 100 µM (inactive).

And the GI50 (M19-MEL)?
Its GI50 is > 100 µM (inactive).

What about the GI50 (SNB-78) of the same compound?
The GI50 was > 100 µM (inactive).

Which results are given for CCOC(=O)C1Nc2ccccc2[C@H]2OCC[C@@H]12 (some centres undefined)?
GI50 (DMS-273): > 100 µM (inactive); GI50 (HOP-18): > 100 µM (inactive); GI50 (KM-20L2): > 100 µM (inactive); GI50 (M19-MEL): > 100 µM (inactive); GI50 (SNB-78): > 100 µM (inactive); GI50 (XF498): > 100 µM (inactive)

With COC(=O)CC(C(C(=O)OCc1ccccc1)C(C)O)N1C(=O)OC(c2ccccc2)C1c1ccccc1 (centres undefined) as the compound, how does the GI50 (DMS-114) read?
Its GI50 is 81.5 µM (inactive).

And the GI50 (DMS-273)?
Its GI50 is > 100 µM (inactive).

What about the GI50 (KM-20L2) of the same compound?
The GI50 was > 100 µM (inactive).

What about the GI50 (LXFL 529) of the same compound?
The GI50 was > 100 µM (inactive).

What about the GI50 (M19-MEL) of the same compound?
The GI50 was > 100 µM (inactive).

What about the GI50 (RXF 631) of the same compound?
The GI50 was > 100 µM (inactive).

What about the GI50 (XF498) of the same compound?
Its GI50 is 24.9 µM (inactive).

What does the source list for Cc1cc2nc3ccc(N(C)C)cc3[s+]c2cc1N [TOLONIUM CHLORIDE]?
GI50 (DMS-114): 0.867 µM (active); GI50 (DMS-273): 2.67 µM (inactive); GI50 (HOP-18): 10.3 µM (inactive); GI50 (KM-20L2): 14.5 µM (inactive); GI50 (LXFL 529): 0.769 µM (active); GI50 (M19-MEL): 0.184 µM (active); GI50 (SNB-78): 12.6 µM (inactive)
